Converted amounts (≈) assume the structure as drawn.

For data set [1], the system named is B. cinerea resistant to carbendazim (HM-1). Nature of the data set: greenhouse pot test on tomato, carbendazim-resistant strain HM-1. The data set is classed as in vivo, Botrytis cinerea. Here is the method:
(§1) The B. cinerea strains, which had resistance to carbendazim (HM-1), diethofencarb (HM-2), and iprodione (HM-3) for greenhouse pot studies, were provided by the Institute of Vegetables and Flowers, Chinese Academy of Agricultural Sciences (Beijing, China).
(§2) The experiments were conducted in the greenhouse of the Institute of Vegetables and Flowers, Chinese Academy of Agricultural Sciences. The maximum and minimum temperatures of the greenhouse were 29 °C and 19 °C, respectively, and the average temperature was 24 °C. B. cinerea strains showing resistance to carbendazim, diethofencarb, and iprodione were cultivated on potato dextrose agar (PDA) plates for 4–5 d at room temperature. Tomato seeds (Ziyu) were sown in ceramic pots (300 mm in diameter) containing 0.6 kg of soil sterilized with formaldehyde (4–5 seeds for each pot). When plants were grown to the five-leaf stage, an aqueous solution of 25% L13 WP (at dilution multiples of 1000 and 2000 times) was sprayed preventatively on the plant surface. […] The severity of the disease was assessed according to a nine-grade classification at 7 d after inoculation, by which time the disease in the untreated control had fully developed.

The subject of data set [2] is B. cinerea resistant to iprodione (HM-3). Briefly: greenhouse pot test on tomato, iprodione-resistant strain HM-3. The data set is classed as in vivo, Botrytis cinerea. Here is the method:
as §1, §2

The subject of data set [3] is intact mycelia of B. cinerea. Nature of the data set: mycelial respiration (oxygen consumption of intact mycelia). Type of data set: cell-based, Botrytis cinerea. The settings on record: 25 °C; for R1 (mycelial oxygen uptake post addition of fungicide): R0 173.51; for inhibition at 50 µg/mL / inhibition at 100 µg/mL: Botrytis cinerea, read-out: IR (inhibition of respiration). Here is the method: Mycelial plugs of B. cinerea from 3 days old colony margins were transferred to conical flasks containing 150 mL of PDA liquid medium for shake culture (25 °C, 150 r/min). After 5 days, mycelia were washed three times with 50 mM potassium phosphate buffer (pH 7.2) and resuspended in 0.1 M phosphate buffer (pH 7.2), containing 2% glucose to afford mycelial suspension at a concentration of 50 mg fresh weight of mycelia per milliliter. The mycelial suspension was treated with 50 and 100 μg/mL of L13 and famoxadone, respectively. All measurements were carried out at 25 ± 1 °C. The ratio of the mycelial oxygen consumption was tested by oxygraphy (DW1, Hansatech Instruments Ltd., England), and the inhibition of respiration was calculated using the following formula:IR = (R0 − R1)/R0 × 100(1)
IR: inhibition of respiration (%); R0, R1: the ratio of mycelial oxygen uptake pre and post addition of fungicides (nmol O2/min/mg mycelia).

For the next data set, the system named is B. cinerea on tomatoes. Briefly: field efficacy trials against tomato gray mold. The data set is classed as in vivo, Botrytis cinerea. Particulars: Yuncheng city; 225 g ai ha^−1; over 2 years. How it is done:
The field efficacy trials of L13 against tomato gray mold were conducted in two locations of Yuncheng, Shanxi Province, and Gaocheng, Hebei Province. The experiments were conducted according to the National Agriculture Industry Standard of “Pesticide-guidelines for the field efficacy trials (I)-Fungicides against gray mold of vegetables” [38]. Tomato Jinpeng No. 1 was used as the experimental cultivar. There were six treatments in each trial, and the area of each plot was 5 × 3 m with four replications (24 plots). When tomato plants were grown to the five-leaf stage, an aqueous solution of L13 50% WP at a rate of 450 and 225 g ai ha^−1 was sprayed onto the plants using a hydraulic knapsack electric sprayer (CD-16B, Chaoda Instrument Co., Ltd., Taizhou, China) with a single cone nozzle operating at a typical working pressure 0.3 MPa. Iprodione 50% WP, or iprodione 25% SC at a rate of 225 and 562.5 g ai ha^−1 were used as positive controls. Three applications were conducted at an interval of 7 d. The disease was assessed according to a nine-grade classification 7 d after the last application.

Another data set has as its system B. cinerea hyphae. Nature of the data set: SEM and TEM of mycelial morphology and ultrastructure. Type of data set: cell-based, Botrytis cinerea. Particulars: 3 days. Here is the method: B. cinerea mycelial tips (5 mm) from the margins of the actively growing colony on the PDA medium amended with 0, 50, and 100 μg/mL of L13 were cut down after being cultured for 3 days. Then the mycelial tips were treated with 4% glutaraldehyde at 4 °C, then rinsed with 0.1 M phosphate buffer (pH 7.3) and fixed with 1% w/v osmium tetraoxide solution. After being rinsed with 0.1 M phosphate buffer three times, the mycelium block was dehydrated using a series of acetone solutions in the order of concentration: 30%, 50%, 70%, 80%, 90%, and anhydrous acetone. The processes of drying at a critical point, mounting, and gold spraying were completed at last and examined in a scanning electron microscope (S-3400N, Hitachi, Nissei Sanyo, Tokyo, apan) with an accelerating voltage of 18–20 kV.
The mycelial blocks were prepared according to the method given in Section 2.3. After dehydrating and embedding in Epon 112, thin sections were cut and double-stained with uranyl acetate and lead citrate. The grids were examined with a JEOL-1230 (JEOL, Tokyo, Japan) transmission electron microscope.

The test system of data set [4] is B. cinerea resistant to diethofencarb (HM-2). Nature of the data set: greenhouse pot test on tomato, diethofencarb-resistant strain HM-2. Type of data set: in vivo, Botrytis cinerea. Here is the method:
as §1, §2

The nature of a further data set: mutagenesis test. How it is done:
(§3) The acute oral and dermal toxicity test on Wistar rats, eye and skin irritation test on rabbits, and Ames mutagenicity test were commissioned by the Institute for the Control of Chemical Toxicity in Tianjin. The bone marrow cell micronucleus assay and testis chromosomal aberration test of mice were commissioned by Tianjin Center for Disease Control and Prevention. All the toxicological tests were carried out according to the Toxicological Test Methods for Pesticide Registration (GB 15670-1995).
(§4) Based on the preliminary experiment, Horn’s method was used to determine the acute oral toxicity of L13. The dosage applied for rats was 464, 1000, 2150, and 4640 mg/kg·BW. For the acute dermal toxicity test, the dosage applied for rats was 2000 mg/kg·BW. For the eye and skin irritation test, rabbits with bodyweight from 2.5 to 3.0 kg were used, and 0.1 and […] of L13 was applied to the eyes and skin, respectively. For the Ames mutagenicity test, 0.05–1.0 mg per dish of L13 was applied, and fenaminosulf (50 μg/dish), 2-aminofluorene (20 μg/dish), and 1,8-dihydroxyanthraquinone (50 μg/dish) were used as the positive controls. For the mouse bone marrow cell micronucleus assay, the dosages applied were 165, 82.5, 41.3, and 8.3 mg/kg·BW, and cyclophosphamide (60 mg/kg·BW) was used as a positive control. […]

Data set [5] concerns rabbits. Nature of the data set: eye irritation test. Type of data set: in vivo. How it is done: as §3, §4
In data set [6] the test system is intact mycelia of B. cinerea. On the set-up: method as in earlier work. The settings on record: cited from earlier work.
A further data set concerns B. cinerea mycelia. Nature of the data set: mycelial electrolyte leakage (conductivity of mycelia suspension). Particulars: 50 μg/mL; for conductivity of mycelia suspension compared with control mycelia: all treatment times 0-100 h. The data set is classed as cell-based, Botrytis cinerea. How it is done: Mycelial discs (5 mm in diameter) of B. cinerea grown on PDA plates were cut from the colony’s margins and placed in PDA liquid medium with 200 r/min shaking for 3 days. The mycelia in the culture medium were collected and washed three times by sterile distilled water and subsequently, filtered and weighed. A stock solution of L13 and commercial fungicide procymidone as a positive control were diluted with sterile distilled water to 50 μg/mL, respectively. After adding 1.0 g of fresh mycelia into different solutions mentioned above, the conductivities of the solutions were measured using the DDS-11C model conductivity detector at 0, 1, 3, 5, 24, 28, 40, 48, 52, 64, 68, 72, 76, 88, 92, and 100 h after treatment. The experiment was repeated twice with three replicates per treatment.

For data set [7], the system named is rabbits. Briefly: skin irritation test. Type of data set: in vivo. How it is done: as §3, §4
The next data set concerns Wistar rats. Briefly: acute oral toxicity. The data set is classed as in vivo. Here is the method:
as §3, §4

Another data set deals with B. cinerea. On the set-up: method as in PMID 18331796. Particulars: cited from earlier work.
[8] abbreviates: dilution multiple 1000, 187.5 g.ai ha^−1.

Consider `COC(=O)Nc1nc2ccccc2[nH]1` [carbendazim, reference compound], for which, in [1] (dilution multiple 500, 750 g.ai ha^−1), the “Control Effect” value is on record as 29.00%.
Turning to `CC(C)NC(=O)N1CC(=O)N(c2cc(Cl)cc(Cl)c2)C1=O` [iprodione, reference compound], the “Control Effect” value in [2] (dilution multiple 1000, 375 g.ai ha^−1) is on record as 2.36%.
Turning to `C[C@@]1(c2ccc(Oc3ccccc3)cc2)OC(=O)N(Nc2ccccc2)C1=O` (racemic) [Famoxadone, famoxadone, reference compound], in [3] (50 μg/mL), the “R1 (mycelial oxygen uptake post addition of fungicide)” value is 115.99 nmol O2/g/min and the inhibition at 50 µg/mL was determined as 33.2%. In addition, in [3] (100 μg/mL), the “R1 (mycelial oxygen uptake post addition of fungicide)” value was found to be 68.79 nmol O2/g/min and the inhibition at 100 µg/mL was determined as 60.4%.
Turning to `O=C1CCCCC1S(=O)(=O)Nc1ccc(Cl)cc1C(F)(F)F` (stereo not drawn) [L13, N-(2-trifluoromethyl-4-chlorphenyl)-2-oxocyclohexyl sulfonamide], in the data set with B. cinerea on tomatoes, the “control effect against B. cinerea on tomatoes” value is 72–76%. Also, the “TEM ultrastructure of hyphae” value with B. cinerea hyphae (PDA with 50 μg/mL) is given as “cell wall exhibited a decomposition trend”; in the data set on B. cinerea hyphae (PDA with 100 μg/mL), “cell wall decomposition”. The entries for the “Control Effect” value in [4] (setting [8]), in data set [2] (setting [8]) and in data set [1] (setting [8]) were 92.61%, 78.27% and 81.36%, respectively. In addition, the Mutagenesis result in the data set “mutagenesis test” was “Negative”. The Eye irritation result with rabbits [5] is reported as “No irritation”. The Teratogenesis entry in “teratogenesis test” is recorded as “Negative”. The “R1 (mycelial oxygen uptake post addition of fungicide)” value in data set [3] (50 μg/mL) turned out to be 169.93 nmol O2/g/min; in [3] (100 μg/mL) it was 143.48 nmol O2/g/min. Besides, in data set [3] (50 μg/mL), the inhibition at 50 µg/mL was found to be 2.15%. Further, the inhibition at 100 µg/mL in data set [3] (100 μg/mL) turned out to be 17.4%. The “content of DNA and polysaccharide in intact mycelia” value in data set [6] was “reduce the content of the DNA and polysaccharide”. Also, in the data set “carcinogenesis test”, the Carcinogenesis result is listed as “Negative”. For the same compound, the “electrolyte leakage compared with positive control” value in the data set with B. cinerea mycelia was “more significant electrolyte leakage from hyphae than procymidone”. In addition, in the data set with B. cinerea mycelia, the “conductivity of mycelia suspension compared with control mycelia” value is reported as “greatly increased”. Besides, the Skin irritation entry in the data set on rabbits [7] is “No irritation”. Also, the figures for the “Acute oral LD50” value in the data set on Wistar rats (female) and in the data set on Wistar rats (male) were 2150 mg/kg·BW and 1470 mg/kg·BW, respectively. In the data set on B. cinerea, the “EC50 against B. cinerea” value is 2.12 µg/mL (≈ 5.96 µM).
Consider `CC12CC1(C)C(=O)N(c1cc(Cl)cc(Cl)c1)C2=O` (stereo not drawn) [procymidone, reference compound], for which the “conductivity of mycelia suspension compared with control mycelia” value with B. cinerea mycelia is “greatly increased”. In addition, the “EC50 against B. cinerea” value with B. cinerea was 2.45 µg/mL (≈ 8.62 µM).
With `CCOc1ccc(NC(=O)OC(C)C)cc1OCC` [diethofencarb, reference compound], the “Control Effect” value in data set [4] (dilution multiple 1400, 267.9 g.ai ha^−1) was 76.36%.

The record behind these values is paper PMC8836143, “Primary Mode of Action of the Novel Sulfonamide Fungicide against Botrytis cinerea and Field Control Effect on Tomato Gray Mold” (International Journal of Molecular Sciences, 2022).
